Experimental data: patent publication US8158656B2, “2-indolinone derivatives as multi-target protein kinase inhibitors and histone deacetylase inhibitors” (Shenzhen Chipscreen Biosciences Ltd., priority 2008, dated 2012)

Legend:
HDAC4/5 = test: MEF2 reporter assay in HeLa cells; assay type: cell-based, human; details: relative to CS055 at 3 μM
Description: (§1) HDAC subtype selectivity inhibition assay of tested compounds was carried out by several reporter gene assays experiments. Briefly, HeLa cells were seeded in 96-well plates the day before transfection to give a confluence of 50-80%. Cells were transfected with one of reporter gene plasmid containing a promoter sequence or response element upstream of a luciferase gene construct using FuGene6 transfection reagent according to the manufacturer's instruction (Roche). The promoters or response elements including p21-promoter, gdf11-promoter, MEF-binding element (MEF2), Nur77-promoter were fused upstream to the luciferase gene reporter construct. For normalizing the transfection efficiency, a GFP expression plasmid was cotransfected. Cells were allowed to express protein for 24 hours followed by addition of individual compounds or the vehicle (DMSO). 24 hours later the cells were harvested, and the luciferase assay and GFP assay were performed using corresponding assay kits according to the manufacturer's instructions (Promega).

HDAC7 = target: T1, HDAC7 (Homo sapiens, UniProt Q8WUI4); test: Nur77 reporter assay in HeLa cells; assay type: cell-based; details: relative to CS055 at 3 μM
T1 construct: endogenous in cells; host or cells: HeLa
T1 sequence (Q8WUI4 1-952): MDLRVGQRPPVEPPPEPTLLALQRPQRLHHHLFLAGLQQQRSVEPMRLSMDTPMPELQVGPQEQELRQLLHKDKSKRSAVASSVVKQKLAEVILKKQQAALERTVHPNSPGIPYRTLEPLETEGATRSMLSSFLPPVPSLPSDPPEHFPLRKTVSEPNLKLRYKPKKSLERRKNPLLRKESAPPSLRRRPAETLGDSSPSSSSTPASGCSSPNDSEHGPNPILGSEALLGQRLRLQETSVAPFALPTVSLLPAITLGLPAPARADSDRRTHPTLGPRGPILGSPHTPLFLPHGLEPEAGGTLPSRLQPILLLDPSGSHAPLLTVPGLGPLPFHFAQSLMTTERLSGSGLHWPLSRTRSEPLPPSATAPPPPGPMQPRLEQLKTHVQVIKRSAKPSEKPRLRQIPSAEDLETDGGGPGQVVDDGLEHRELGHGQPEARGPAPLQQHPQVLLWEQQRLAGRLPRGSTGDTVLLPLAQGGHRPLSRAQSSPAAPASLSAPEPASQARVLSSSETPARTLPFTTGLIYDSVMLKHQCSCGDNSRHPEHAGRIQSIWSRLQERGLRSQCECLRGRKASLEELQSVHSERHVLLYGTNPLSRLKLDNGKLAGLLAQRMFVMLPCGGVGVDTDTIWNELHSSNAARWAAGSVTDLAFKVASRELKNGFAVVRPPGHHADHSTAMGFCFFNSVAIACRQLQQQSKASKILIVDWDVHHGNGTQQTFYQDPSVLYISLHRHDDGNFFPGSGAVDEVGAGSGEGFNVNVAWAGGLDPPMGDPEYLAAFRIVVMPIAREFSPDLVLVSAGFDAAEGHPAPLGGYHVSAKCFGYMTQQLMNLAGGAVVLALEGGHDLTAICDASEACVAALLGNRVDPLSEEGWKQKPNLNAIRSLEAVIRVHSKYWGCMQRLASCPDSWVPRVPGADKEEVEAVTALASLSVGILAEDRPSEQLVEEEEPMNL
Description: as §1

HDAC3 = target: T2, HDAC3 (Homo sapiens, UniProt O15379); test: GDF11 reporter assay in HeLa cells; assay type: cell-based; details: relative to CS055 at 3 μM
T2 construct: endogenous in cells; host or cells: HeLa
Description: as §1

Class I HDAC = test: P21 reporter assay in HeLa cells; assay type: cell-based, human; details: relative to CS055 at 3 μM
Description: as §1

Jurkat = test: Tumor cell proliferation (MTS), Jurkat; assay type: cell-based; details: Homo sapiens, 72 hours
Description: (§2) Measurement of in vivo cell proliferation:
(§3) Tumor cells were trypsinized and plated into 96-well plates at 3,000 per well and incubated in complete medium with 10% FBS for 24 hours. Compounds were added over a final concentration range of 100 μmol/L to 100 nmol/L in 0.1% DMSO and incubated for 72 hours in complete medium. The effects on proliferation were determined by addition of MTS reagent (Promega) according to the instruction, incubation for 2 hours at 37° C. in CO2 incubator, and record the absorbance at 490 nm using an ELISA plate reader.

Hut-78 = test: Tumor cell proliferation (MTS), Hut-78; assay type: cell-based; details: Homo sapiens, HuT78, Hut-78, 72 hours
Description: as §2, §3

MDA-MB-231 = test: Tumor cell proliferation (MTS), MDA-MB-231; assay type: cell-based; details: Homo sapiens, MDA-MB-231, 72 hours
Description: as §2, §3

HCT-8 = test: Tumor cell proliferation (MTS), HCT-8; assay type: cell-based; details: Homo sapiens, HCT-8, 72 hours
Description: as §2, §3

A549 = test: Tumor cell proliferation (MTS), A549; assay type: cell-based; details: Homo sapiens, A549, 72 hours
Description: as §2, §3

Bel-7402 = test: Tumor cell proliferation (MTS), Bel-7402; assay type: cell-based; details: Homo sapiens, Bel-7402, 72 hours
Description: as §2, §3

U937 = test: Tumor cell proliferation (MTS), U937; assay type: cell-based; details: Homo sapiens, U-937, U937, 72 hours
Description: as §2, §3

Ramos = test: Tumor cell proliferation (MTS), Ramos; assay type: cell-based; details: Homo sapiens, 72 hours
Description: as §2, §3

HL60 = test: Tumor cell proliferation (MTS), HL60; assay type: cell-based; details: Homo sapiens, HL-60, HL60, 72 hours
Description: as §2, §3

Raji = test: Tumor cell proliferation (MTS), Raji; assay type: cell-based; details: Homo sapiens, 72 hours
Description: as §2, §3

MCF7 = test: Tumor cell proliferation (MTS), MCF7; assay type: cell-based; details: Homo sapiens, MCF7, 72 hours
Description: as §2, §3

HeLa = test: Tumor cell proliferation (MTS), HeLa; assay type: cell-based; details: Homo sapiens, 72 hours
Description: as §2, §3

T2 sequence (O15379 whole entry): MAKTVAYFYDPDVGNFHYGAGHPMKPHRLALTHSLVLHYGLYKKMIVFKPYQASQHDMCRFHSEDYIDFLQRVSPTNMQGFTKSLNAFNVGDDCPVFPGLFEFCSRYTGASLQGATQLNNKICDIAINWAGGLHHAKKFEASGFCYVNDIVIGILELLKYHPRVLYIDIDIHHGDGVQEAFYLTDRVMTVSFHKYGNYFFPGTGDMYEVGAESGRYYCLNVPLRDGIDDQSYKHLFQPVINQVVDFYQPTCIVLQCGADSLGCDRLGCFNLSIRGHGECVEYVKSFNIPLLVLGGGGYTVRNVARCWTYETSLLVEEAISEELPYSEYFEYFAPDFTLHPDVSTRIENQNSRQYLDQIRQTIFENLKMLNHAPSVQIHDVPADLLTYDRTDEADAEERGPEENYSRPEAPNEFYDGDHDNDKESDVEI
T2 sequence (Q9Y618 whole entry partner): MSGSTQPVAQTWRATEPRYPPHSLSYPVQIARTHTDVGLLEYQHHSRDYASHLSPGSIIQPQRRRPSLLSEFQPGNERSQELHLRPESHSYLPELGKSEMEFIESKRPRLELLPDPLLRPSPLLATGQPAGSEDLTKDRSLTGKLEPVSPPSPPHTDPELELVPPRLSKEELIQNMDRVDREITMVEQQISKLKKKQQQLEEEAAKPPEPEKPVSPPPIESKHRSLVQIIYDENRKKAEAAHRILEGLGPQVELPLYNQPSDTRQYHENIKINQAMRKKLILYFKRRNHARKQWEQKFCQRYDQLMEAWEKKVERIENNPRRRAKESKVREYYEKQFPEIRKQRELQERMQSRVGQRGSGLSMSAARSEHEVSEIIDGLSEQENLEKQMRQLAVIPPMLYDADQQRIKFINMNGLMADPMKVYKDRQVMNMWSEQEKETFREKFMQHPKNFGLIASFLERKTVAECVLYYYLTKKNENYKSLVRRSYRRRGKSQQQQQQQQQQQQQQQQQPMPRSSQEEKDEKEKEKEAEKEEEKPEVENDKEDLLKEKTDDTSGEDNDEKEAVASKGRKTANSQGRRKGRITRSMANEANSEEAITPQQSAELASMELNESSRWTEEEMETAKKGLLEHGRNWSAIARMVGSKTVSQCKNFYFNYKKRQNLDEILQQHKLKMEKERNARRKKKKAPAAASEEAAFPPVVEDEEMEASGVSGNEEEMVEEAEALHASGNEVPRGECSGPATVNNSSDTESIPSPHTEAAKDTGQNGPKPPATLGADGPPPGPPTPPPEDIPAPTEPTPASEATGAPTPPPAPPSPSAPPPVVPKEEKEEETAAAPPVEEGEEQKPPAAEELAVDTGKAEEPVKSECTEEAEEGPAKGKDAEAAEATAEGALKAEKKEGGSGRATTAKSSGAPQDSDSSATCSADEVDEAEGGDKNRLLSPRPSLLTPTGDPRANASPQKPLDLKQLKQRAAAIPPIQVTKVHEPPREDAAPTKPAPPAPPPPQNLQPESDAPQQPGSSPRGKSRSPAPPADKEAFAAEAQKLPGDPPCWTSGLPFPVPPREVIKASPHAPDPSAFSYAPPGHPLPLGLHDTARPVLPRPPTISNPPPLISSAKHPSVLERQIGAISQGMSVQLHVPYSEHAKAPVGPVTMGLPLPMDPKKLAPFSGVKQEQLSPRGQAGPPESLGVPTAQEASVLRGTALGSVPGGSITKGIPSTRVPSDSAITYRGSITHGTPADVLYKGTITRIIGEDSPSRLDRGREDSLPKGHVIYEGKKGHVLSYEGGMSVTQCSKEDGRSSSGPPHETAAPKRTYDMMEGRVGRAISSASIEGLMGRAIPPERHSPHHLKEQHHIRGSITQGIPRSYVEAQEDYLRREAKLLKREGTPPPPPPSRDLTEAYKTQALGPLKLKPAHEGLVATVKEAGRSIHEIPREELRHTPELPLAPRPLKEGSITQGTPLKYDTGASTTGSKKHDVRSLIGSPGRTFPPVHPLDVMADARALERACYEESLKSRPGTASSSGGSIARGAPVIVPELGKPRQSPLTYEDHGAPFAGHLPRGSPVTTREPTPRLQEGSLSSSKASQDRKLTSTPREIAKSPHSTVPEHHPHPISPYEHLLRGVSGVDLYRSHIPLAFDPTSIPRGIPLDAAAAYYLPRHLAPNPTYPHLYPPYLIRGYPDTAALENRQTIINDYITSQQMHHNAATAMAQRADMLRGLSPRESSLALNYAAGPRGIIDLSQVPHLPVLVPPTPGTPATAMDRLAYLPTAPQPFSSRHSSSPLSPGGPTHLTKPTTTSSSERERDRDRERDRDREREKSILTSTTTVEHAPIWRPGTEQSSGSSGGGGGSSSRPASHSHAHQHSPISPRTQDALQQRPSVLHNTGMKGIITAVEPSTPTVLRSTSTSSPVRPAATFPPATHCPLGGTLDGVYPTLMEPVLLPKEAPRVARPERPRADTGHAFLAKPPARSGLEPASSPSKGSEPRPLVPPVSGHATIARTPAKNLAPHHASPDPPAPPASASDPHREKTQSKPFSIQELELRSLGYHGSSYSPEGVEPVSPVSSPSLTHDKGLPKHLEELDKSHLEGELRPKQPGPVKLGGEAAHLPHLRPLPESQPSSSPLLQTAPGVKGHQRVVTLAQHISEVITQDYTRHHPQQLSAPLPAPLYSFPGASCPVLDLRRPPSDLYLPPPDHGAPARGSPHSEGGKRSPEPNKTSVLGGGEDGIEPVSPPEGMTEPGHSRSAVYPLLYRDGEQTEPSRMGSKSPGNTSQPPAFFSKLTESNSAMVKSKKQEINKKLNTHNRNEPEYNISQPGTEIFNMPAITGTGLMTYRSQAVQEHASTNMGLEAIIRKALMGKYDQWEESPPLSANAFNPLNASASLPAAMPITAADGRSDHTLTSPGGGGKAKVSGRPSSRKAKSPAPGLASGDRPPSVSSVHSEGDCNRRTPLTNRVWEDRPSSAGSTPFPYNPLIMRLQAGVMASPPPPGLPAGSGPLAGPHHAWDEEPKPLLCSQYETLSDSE

**Q.** With `O=C(CCCCCCC(=O)Nc1ccccc1)NO` [SAHA, suberoylanilide hydroxamic acid, reference compound] as the compound, how does the “HDAC4/5 (MEF2 reporter assay) % Max Resp of CS055 at 3 μM” value (HDAC4/5) read?
**A.** 427.3%

**Q.** And the “HDAC7 (Nur77 reporter assay) % Max Resp of CS055 at 3 μM” value (HDAC7)?
**A.** 514.9%

**Q.** And the “HDAC3 (GDF11 reporter assay) % Max Resp of CS055 at 3 μM” value (HDAC3)?
**A.** 317.9%

**Q.** What about the “Class I HDAC (P21 reporter assay) % Max Resp of CS055 at 3 μM” value (Class I HDAC) of the same compound?
**A.** 304.1%

**Q.** What does the source list for `CNC(=O)c1cc(Oc2ccc(NC(=O)Nc3ccc(Cl)c(C(F)(F)F)c3)cc2)ccn1` [Sorafinib, reference compound]?
**A.** GI50 (Jurkat): 16.9 µM; GI50 (Hut-78): 12.5 µM; GI50 (MDA-MB-231): 4.25 µM; GI50 (HCT-8): 5.35 µM; GI50 (A549): 13.8 µM; GI50 (Bel-7402): 9.73 µM; GI50 (U937): 4.06 µM; GI50 (Ramos): 1.51 µM; GI50 (HL60): 1.28 µM; GI50 (Raji): 4.15 µM; GI50 (MCF7): 9.51 µM; GI50 (HeLa): 30.8 µM

**Q.** What does the source list for `CCN(CC)CCNC(=O)c1c(C)[nH]c(/C=C2\C(=O)Nc3ccc(F)cc32)c1C` [Sutent, reference compound]?
**A.** GI50 (Jurkat): 7.05 µM; GI50 (Hut-78): 4.06 µM; GI50 (MDA-MB-231): 4.66 µM; GI50 (HCT-8): 12.2 µM; GI50 (A549): 14.7 µM; GI50 (Bel-7402): 13.1 µM; GI50 (U937): 8.28 µM; GI50 (Ramos): 12 µM; GI50 (HL60): 1.73 µM; GI50 (Raji): 5.47 µM; GI50 (MCF7): 7.55 µM; GI50 (HeLa): 9.29 µM
